“And” between values parts separate entries of the source, which are not always exact repeats. Identical values can stand only once. Like-named read-outs stand apart in the source and are kept apart here.
How the values were obtained:
[1] = tested on: SARS-CoV-2 Omicron (B.1.1.529); assay: microbe, parasite or virus in culture; type: cell-based; conditions: Severe acute respiratory syndrome coronavirus 2; Omicron (B1.1.529), Caco-2
[2] = biological target: full-length SARS-CoV-2 hemagglutinin (HA)-Nsp3 (Severe acute respiratory syndrome coronavirus 2, UniProt P0DTD1); assay: biochemical
SARS-CoV-2 USA-WA1/2020 = assay: microbe, parasite or virus in culture; type: cell-based; conditions: for Virus Titer: USA-WA1/2020
[3] = tested on: SARS-CoV-2 Omicron (B.1.1.529); assay: CPE assay, neutral red, Vero E6 cells with 2 μM CP-100356, Omicron; type: cell-based; conditions: Severe acute respiratory syndrome coronavirus 2, Vero C1008
[4] = tested on: SARS-CoV-2 Delta (B.1.617.2); assay: microbe, parasite or virus in culture; type: cell-based; conditions: Severe acute respiratory syndrome coronavirus 2; Delta (B1.617.2), Caco-2
[5] = Metabolic stability in rat liver S9 fraction; conditions: Sprague-Dawley
[6] = Metabolic stability in mouse liver S9 fraction; conditions: CD-1, mouse
PLpro = PLpro (Severe acute respiratory syndrome coronavirus 2, UniProt P0DTD1); assay: Intact protein ESI-MS to assess covalent adduct formation; type: binding, SARS-CoV-2; design: unit not given here
[7] = Metabolic stability in mouse liver microsomes; conditions: CD-1, mouse
[8] = tested on: SARS-CoV-2 isolate USA-WA1/2020; assay: microbe, parasite or virus in culture; conditions: for inhibition at […]: Severe acute respiratory syndrome coronavirus 2, Vero C1008, read-out: cytopathic effect, % cell viability; for inhibition at 2.08 µM: Severe acute respiratory syndrome coronavirus 2, Vero C1008, read-out: cytopathic effect, % cell viability, [inhibitor] 2.08 uM; for inhibition at 16.65 µM: Severe acute respiratory syndrome coronavirus 2, Vero C1008, read-out: cytopathic effect, % cell viability, [inhibitor] 16.65 uM
USP15 = biological target: T1, USP15 (Homo sapiens, UniProt Q9Y4E8); assay: DUB selectivity assay, USP15 (Ub-rhodamine110); type: biochemical
T1 construct: purchased LifeSensors, Inc. (Malvern, PA)
T1 sequence (Q9Y4E8 1-981): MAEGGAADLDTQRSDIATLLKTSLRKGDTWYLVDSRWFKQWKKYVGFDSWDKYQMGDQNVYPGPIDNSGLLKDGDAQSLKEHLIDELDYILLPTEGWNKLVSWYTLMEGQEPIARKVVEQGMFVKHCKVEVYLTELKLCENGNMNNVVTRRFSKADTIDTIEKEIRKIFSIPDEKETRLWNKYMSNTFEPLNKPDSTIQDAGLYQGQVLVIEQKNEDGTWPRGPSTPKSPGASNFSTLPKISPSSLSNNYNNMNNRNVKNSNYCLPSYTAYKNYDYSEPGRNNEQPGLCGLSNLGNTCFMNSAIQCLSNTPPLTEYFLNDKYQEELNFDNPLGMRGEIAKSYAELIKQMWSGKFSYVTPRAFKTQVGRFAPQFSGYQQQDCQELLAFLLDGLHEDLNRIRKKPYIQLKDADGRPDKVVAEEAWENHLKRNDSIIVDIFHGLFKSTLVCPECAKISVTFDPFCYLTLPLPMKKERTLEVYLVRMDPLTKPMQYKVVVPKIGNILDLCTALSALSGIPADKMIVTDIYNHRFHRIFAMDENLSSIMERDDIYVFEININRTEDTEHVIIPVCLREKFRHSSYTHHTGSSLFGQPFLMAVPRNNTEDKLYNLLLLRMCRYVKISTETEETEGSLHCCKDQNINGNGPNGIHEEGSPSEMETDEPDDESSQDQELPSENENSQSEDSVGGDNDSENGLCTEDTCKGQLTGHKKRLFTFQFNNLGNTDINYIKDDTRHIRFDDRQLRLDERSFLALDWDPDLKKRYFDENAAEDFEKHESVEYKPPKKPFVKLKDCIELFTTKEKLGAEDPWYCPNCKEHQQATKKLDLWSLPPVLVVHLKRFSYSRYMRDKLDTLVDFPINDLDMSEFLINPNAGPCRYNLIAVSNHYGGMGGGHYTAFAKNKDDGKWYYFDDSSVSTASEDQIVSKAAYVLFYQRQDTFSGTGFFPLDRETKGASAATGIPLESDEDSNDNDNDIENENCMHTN

USP7 = biological target: T2, USP7 (Homo sapiens, UniProt Q93009); assay: biochemical; conditions: USP7 5 nM, Ub-CHOP2
T2 construct: purchased LifeSensors, Inc. (Malvern, PA)
T2 sequence (Q93009 whole entry): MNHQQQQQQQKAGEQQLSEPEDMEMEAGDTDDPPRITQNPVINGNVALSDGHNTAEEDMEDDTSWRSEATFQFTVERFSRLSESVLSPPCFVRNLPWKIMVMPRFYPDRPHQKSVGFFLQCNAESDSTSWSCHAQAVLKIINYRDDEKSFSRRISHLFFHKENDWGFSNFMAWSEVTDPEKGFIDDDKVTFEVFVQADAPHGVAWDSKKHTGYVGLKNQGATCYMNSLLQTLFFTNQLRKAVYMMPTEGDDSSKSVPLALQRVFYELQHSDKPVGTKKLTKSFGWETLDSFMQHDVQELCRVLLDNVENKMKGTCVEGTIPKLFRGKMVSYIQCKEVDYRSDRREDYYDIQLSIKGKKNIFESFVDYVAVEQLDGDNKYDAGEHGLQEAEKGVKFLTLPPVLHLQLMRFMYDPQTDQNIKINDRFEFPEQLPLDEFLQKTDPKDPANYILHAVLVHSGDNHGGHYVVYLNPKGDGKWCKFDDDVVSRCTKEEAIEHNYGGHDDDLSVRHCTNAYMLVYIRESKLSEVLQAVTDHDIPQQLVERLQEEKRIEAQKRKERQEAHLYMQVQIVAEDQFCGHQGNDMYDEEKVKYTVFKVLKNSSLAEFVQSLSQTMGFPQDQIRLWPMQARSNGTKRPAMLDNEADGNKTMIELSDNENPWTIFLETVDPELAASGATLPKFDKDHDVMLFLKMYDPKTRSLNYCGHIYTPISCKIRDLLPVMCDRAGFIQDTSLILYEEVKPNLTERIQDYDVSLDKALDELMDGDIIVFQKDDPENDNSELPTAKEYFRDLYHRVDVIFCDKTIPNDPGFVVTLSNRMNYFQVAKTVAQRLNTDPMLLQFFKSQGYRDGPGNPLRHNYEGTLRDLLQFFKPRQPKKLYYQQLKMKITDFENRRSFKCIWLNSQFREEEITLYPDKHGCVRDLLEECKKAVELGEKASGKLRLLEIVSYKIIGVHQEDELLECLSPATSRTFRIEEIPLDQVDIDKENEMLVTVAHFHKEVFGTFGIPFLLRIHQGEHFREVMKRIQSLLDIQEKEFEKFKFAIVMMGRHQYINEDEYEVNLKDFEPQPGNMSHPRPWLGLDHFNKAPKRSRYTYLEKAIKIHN

PLpro from SARS-CoV-2 = PLpro from SARS-CoV-2 (Severe acute respiratory syndrome coronavirus 2, UniProt P0DTD1); assay: biochemical; type: biochemical; conditions: for remaining activity at 20 µM: inhibitor 20.00 uM
[9] = tested on: SARS-CoV-2 isolate USA-WA1/2020; conditions: for inhibition: read-out: cytopathic effect, % cell viability, duplicate wells
Vero E6 cells = assay: Cytotoxicity in uninfected Vero E6 cells, CellTiter-Glo
[10] = as above; conditions: African green monkey
[11] = tested on: SARS-CoV-2 Delta (B.1.617.2); assay: CPE assay, neutral red, Vero E6 cells with 2 μM CP-100356, Delta; type: cell-based; conditions: Severe acute respiratory syndrome coronavirus 2, Vero C1008
SARS-CoV-2 PLpro = SARS-CoV-2 PLpro (Severe acute respiratory syndrome coronavirus 2, UniProt P0DTD1); assay: biochemical; conditions: PLpro 10 nM, ISG15-CHOP2
[12] = Metabolic stability in human liver microsomes

**Q.** Which results are given for COC(=O)/C=C/C(=O)NNC(=O)CCc1ccccc1C(=O)N[C@H](C)c1cccc2ccccc12 [Compound 7, methyl(R,E)-4-(2-(3-(2-((1-(naphthalen-1 yl)ethyl)carbamoyl)phenyl)propanoyl)hydrazineyl)-4-oxobut-2-enoate]?
**A.** EC90 [1]: 2.4 µM; inhibition at 0.003 µM ([2]; 0.003 uM, read-out: Percent Nsp3 inhibition): -4%; Percent Nsp3 inhibition ([2]; 1.852 uM): 84.0%; inhibition at 1.852 µM ([2]; 1.852 uM, read-out: Percent Nsp3 inhibition): 83.9%; Percent Nsp3 inhibition ([2]; 50.000 uM): 89.9%; inhibition at 50 µM ([2]; 50.000 uM, read-out: Percent Nsp3 inhibition): 90.7%; EC90 (SARS-CoV-2 USA-WA1/2020; Severe acute respiratory syndrome coronavirus 2, Caco-2): 0.26 µM; Virus Titer (SARS-CoV-2 USA-WA1/2020; 0.01 µM): 4.0 CCID50/mL (Log10); Virus Titer (SARS-CoV-2 USA-WA1/2020; 0.1 µM): 1.7 CCID50/mL (Log10); Virus Titer (SARS-CoV-2 USA-WA1/2020; 1 µM): <0.7 CCID50/mL (Log10); Virus Titer (SARS-CoV-2 USA-WA1/2020; 10 µM): <0.7 CCID50/mL (Log10); EC50 [3]: 0.68 µM; EC90 [4]: > 10 µM; half-life [5]: 31 min; microsomal CLint [5]: 75.5 µL/min/mg; half-life [6]: 9 min; microsomal CLint [6]: 266 µL/min/mg; Measured adduct mass (PLpro): 474; half-life [7]: 13 min; microsomal CLint [7]: 540 µL/min/mg; viability at […] ([8]; Severe acute respiratory syndrome coronavirus 2, Vero C1008, read-out: % cell viability, cytopathic effect): 79.3% and 52.3%; viability at 2.08 µM ([8]; Severe acute respiratory syndrome coronavirus 2, Vero C1008, read-out: % cell viability, cytopathic effect, 2.08 uM): 80.5%; viability at 16.65 µM ([8]; Severe acute respiratory syndrome coronavirus 2, Vero C1008, read-out: % cell viability, cytopathic effect, 16.65 uM): 88.8%; inhibition at […] [8]: 79.3% and 52.3%; inhibition at 2.08 µM ([8]; duplicate wells): 80.5%; inhibition at 16.65 µM ([8]; duplicate wells): 88.8%; IC50 (USP15): > 30 µM; IC50 (USP7): > 30 µM; remaining activity at 0.06 µM (PLpro from SARS-CoV-2; 0.5 h, 0.06 uM inhibitor): 66.6%; remaining activity at 0.2 µM (PLpro from SARS-CoV-2; 0.5 h, 0.20 uM inhibitor): 17.4%; remaining activity at 20.03 µM (PLpro from SARS-CoV-2; 0.5 h, 20.03 uM inhibitor): 2.85%; remaining activity at 200 µM (PLpro from SARS-CoV-2; 0.5 h, 200.00 uM inhibitor, 30-min preincubation): 4.35%; remaining activity at 0.06 µM (PLpro from SARS-CoV-2; 0.5 h, inhibitor 0.06 uM): 66.6%; remaining activity at 0.2 µM (PLpro from SARS-CoV-2; 0.5 h, inhibitor 0.20 uM): 17.4%; remaining activity at 20 µM (PLpro from SARS-CoV-2; 0.5 h): 2.85%; remaining activity at 200 µM (PLpro from SARS-CoV-2; 0.5 h, inhibitor 200.00 uM): 4.35%; % cell viability, cytopathic effect ([9]; 2.08 uM): 64.9953%; % cell viability, cytopathic effect ([9]; 8.33 uM): 95.2833% and 73.4931%; % cell viability, cytopathic effect ([9]; 16.65 uM): 97.0077%; inhibition ([9]; [inhibitor] 2.08 uM, 2.08 µM): 65%; inhibition ([9]; [inhibitor] 8.33 uM, 8.33 µM): 95.3% and 73.5%; inhibition ([9]; [inhibitor] 16.65 uM, 16.65 µM): 97%; % cell viability, cytotoxicity (Vero E6 cells; 2.08 uM): 98.575%; % cell viability, cytotoxicity (Vero E6 cells; 8.33 uM): 99.545%; % cell viability, cytotoxicity (Vero E6 cells; 16.65 uM): 90.390%; CC50 < 30 μM (Vero E6 cells; uninfected Vero E6 cells, Yes/No): No; viability at 48 h, 2.08 µM ([10]; % cell viability, cytotoxicity, 2.08 uM): 100%; viability at 48 h, 8.33 µM ([10]; % cell viability, cytotoxicity, 8.33 uM): 99.6%; viability at 48 h, 16.65 µM ([10]; % cell viability, cytotoxicity, 16.65 uM): 95.7%; CC50 at 48 h ([10]; CC50, uninfected Vero E6 cells): > 30 µM; EC50 [11]: 0.29 µM; Hill slope (SARS-CoV-2 PLpro): 1.34; half-life [12]: 50 min; microsomal CLint [12]: 139 µL/min/mg; CC50 (Caco-2 cells; Caco-2, Delta rows): > 10 µM; CC50 (Caco-2 cells; Caco-2, Omicron rows): > 10 µM

**Q.** For C[C@@H](NC(=O)c1ccccc1CCC(=O)NNC(=O)CCl)c1cccc2ccccc12 [Compound 9, (R)-2-(3-(2-(2-chloroacetyl)hydrazineyl)-3-oxopropyl)-N-(1-(naphthalen-1-yl)ethyl)benzamide], which half-life [5] is on record?
**A.** 16 min

**Q.** And the microsomal CLint [5]?
**A.** 140 µL/min/mg

**Q.** What about the half-life [6] of the same compound?
**A.** 4 min

**Q.** And the microsomal CLint [6]?
**A.** 544 µL/min/mg

**Q.** And the Measured adduct mass (PLpro)?
**A.** 401

**Q.** What about the half-life [7] of the same compound?
**A.** 5 min

**Q.** What about the microsomal CLint [7] of the same compound?
**A.** 1330 µL/min/mg

**Q.** What about the EC50 ([8]; Severe acute respiratory syndrome coronavirus 2, Vero C1008, 48 h, read-out: EC50 (cytopathic effect)) of the same compound?
**A.** 34 µM

**Q.** And the inhibition at […] [8]?
**A.** 17.4% and 13.2%

**Q.** And the inhibition at 2.08 µM ([8]; duplicate wells)?
**A.** 10.7%

**Q.** And the inhibition at 8.33 µM ([8]; Severe acute respiratory syndrome coronavirus 2, Vero C1008, read-out: cytopathic effect, % cell viability, [inhibitor] 8.33 uM, duplicate wells)?
**A.** 26.9%

**Q.** What about the inhibition at 16.65 µM ([8]; duplicate wells) of the same compound?
**A.** 19.8%

**Q.** What about the IC50 (USP15; USP15 1 nM, Ub-rhodamine110, read-out: IC50) of the same compound?
**A.** > 30 µM

**Q.** What about the IC50 (USP7) of the same compound?
**A.** > 30 µM

**Q.** And the remaining activity at 6.34 µM (PLpro from SARS-CoV-2; 0.5 h, inhibitor 6.34 uM)?
**A.** 38.1%

**Q.** What about the remaining activity at 20 µM (PLpro from SARS-CoV-2; 0.5 h) of the same compound?
**A.** 17.8%

**Q.** What about the IC50 (PLpro from SARS-CoV-2; after 30-min incubation, purified PLpro, Z-RLRGG-AMC substrate) of the same compound?
**A.** 5.4 µM

**Q.** And the inhibition ([9]; [inhibitor] 2.08 uM, 2.08 µM)?
**A.** 12%

**Q.** And the inhibition ([9]; [inhibitor] 8.33 uM, 8.33 µM)?
**A.** 17.9%

**Q.** And the inhibition ([9]; [inhibitor] 16.65 uM, 16.65 µM)?
**A.** 21%

**Q.** And the Hill slope (SARS-CoV-2 PLpro)?
**A.** 0.817

**Q.** And the IC50 (SARS-CoV-2 PLpro)?
**A.** 20.2 µM

**Q.** What about the half-life [12] of the same compound?
**A.** 7 min

**Q.** What about the microsomal CLint [12] of the same compound?
**A.** 975 µL/min/mg

From PMC10044120, “Potent and selective covalent inhibition of the papain-like protease from SARS-CoV-2” (Nature Communications, 2023)
